# Measured values published in PubChem BioAssay (NCI).
#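 All cell lines were grown in 96-well plates and treated with compound for 48 hours. The concentration for full growth arrest is given as TGI.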
# Columns and labels:
# Test in all cases: NCI-60 cell line screen, 48 h
# [1] = tested on: MDA-MB-435
# [2] = tested on: NCI-H226 lung
# [3] = tested on: HOP-62 NSCLC
# [4] = tested on: NCI-H522 lung
# [5] = tested on: UACC-62 melanoma
# [6] = tested on: SF-539 CNS
# [7] = tested on: PC-3 prostate
# [8] = tested on: U251 CNS
# [9] = tested on: SK-MEL-2 melanoma
# [10] = tested on: ACHN renal
# [11] = tested on: SF-295 CNS
# [12] = tested on: OVCAR-8 ovarian
# [13] = tested on: MALME-3M melanoma
# [14] = tested on: OVCAR-4 ovarian
# [15] = tested on: MCF7 breast
# [16] = tested on: COLO 205 colon
# [17] = tested on: DU-145 prostate
# [18] = tested on: HT29 colon
# [19] = tested on: A549 NSCLC
# [20] = tested on: HCC-2998 colon
# [21] = tested on: IGROV1 ovarian
# [22] = tested on: OVCAR-3 ovarian
# [23] = tested on: NCI-H460 lung
# [24] = tested on: A498 renal
# [25] = tested on: UACC-257 melanoma
# [26] = tested on: SNB-19 CNS
# [27] = tested on: SF-268 CNS
# [28] = tested on: RXF 393 renal
# [29] = tested on: HL-60(TB) leukemia
# [30] = tested on: UO-31 renal
# [31] = tested on: OVCAR-5 ovarian
# [32] = tested on: HCT-15 colon
# [33] = tested on: BT-549 breast
# [34] = tested on: SK-MEL-5 melanoma
# [35] = tested on: MDA-MB-231 breast
# [36] = tested on: HOP-92 NSCLC
# [37] = tested on: NCI/ADR-RES ovarian
# [38] = tested on: CAKI-1 renal
# [39] = tested on: K-562 leukemia
# [40] = tested on: EKVX NSCLC
# [41] = tested on: LOX IMVI melanoma
# [42] = tested on: 786-0 renal
# [43] = tested on: TK-10 renal
# [44] = tested on: KM12 colon
# [45] = tested on: SK-MEL-28 melanoma
# [46] = tested on: RPMI-8226 leukemia
# [47] = tested on: SN12C renal
# [48] = tested on: MDA-N
# [49] = tested on: SK-OV-3 ovarian
# [50] = tested on: CCRF-CEM leukemia
# [51] = tested on: HCT-116 colon
# [52] = tested on: MOLT-4 leukemia
# [53] = tested on: SNB-75 CNS
# [54] = tested on: NCI-H23 lung
# [55] = tested on: M14 melanoma
# [56] = tested on: SW-620 colon
# [57] = tested on: HS 578T breast
smiles,measurement,setting,value
COc1ccccc1C(=O)c1c(N2CCCCC2)c(=O)c1=O,TGI,[1],> 100 µM
same,TGI,[2],> 100 µM
same,TGI,[3],> 100 µM
same,TGI,[4],> 100 µM
same,TGI,[5],> 100 µM
same,TGI,[6],> 100 µM
same,TGI,[7],> 100 µM
same,TGI,[8],> 100 µM
same,TGI,[9],> 100 µM
same,TGI,[10],> 100 µM
same,TGI,[11],> 100 µM
same,TGI,[12],> 100 µM
same,TGI,[13],> 100 µM
same,TGI,[14],> 100 µM
same,TGI,[15],> 100 µM
same,TGI,[16],> 100 µM
same,TGI,[17],> 100 µM
same,TGI,[18],> 100 µM
same,TGI,[19],> 100 µM
same,TGI,[20],> 100 µM
same,TGI,[21],> 100 µM
same,TGI,[22],> 100 µM
same,TGI,[23],> 100 µM
same,TGI,[24],> 100 µM
same,TGI,[25],> 100 µM
same,TGI,[26],> 100 µM
same,TGI,[27],> 100 µM
same,TGI,[28],> 100 µM
same,TGI,[29],> 100 µM
same,TGI,[30],> 100 µM
same,TGI,[31],> 100 µM
same,TGI,[32],> 100 µM
same,TGI,[33],> 100 µM
same,TGI,[34],> 100 µM
same,TGI,[35],> 100 µM
same,TGI,[36],> 100 µM
same,TGI,[37],> 100 µM
same,TGI,[38],> 100 µM
same,TGI,[39],> 100 µM
same,TGI,[40],> 100 µM
same,TGI,[41],> 100 µM
same,TGI,[42],> 100 µM
same,TGI,[43],> 100 µM
same,TGI,[44],> 100 µM
same,TGI,[45],> 100 µM
same,TGI,[46],> 100 µM
same,TGI,[47],> 100 µM
same,TGI,[48],> 100 µM
same,TGI,[49],> 100 µM
same,TGI,[50],> 100 µM
same,TGI,[51],> 100 µM
same,TGI,[52],> 100 µM
same,TGI,[53],> 100 µM
same,TGI,[54],> 100 µM
same,TGI,[55],> 100 µM
same,TGI,[56],> 100 µM
Cc1ccc(S(=O)(=O)Nn2c(-c3ccccc3)c(C#N)c(-c3ccc([N+](=O)[O-])cc3)c(C#N)c2=O)cc1,TGI,[1],> 100 µM
same,TGI,[57],> 100 µM
same,TGI,[2],> 100 µM
same,TGI,[3],> 100 µM
same,TGI,[4],> 100 µM
same,TGI,[5],> 100 µM
same,TGI,[6],> 100 µM
same,TGI,[7],> 100 µM
same,TGI,[8],> 100 µM
same,TGI,[9],> 100 µM
same,TGI,[10],> 100 µM
same,TGI,[11],> 100 µM
same,TGI,[12],> 100 µM
same,TGI,[13],> 100 µM
same,TGI,[14],> 100 µM
same,TGI,[15],> 100 µM
same,TGI,[16],> 100 µM
same,TGI,[18],> 100 µM
same,TGI,[19],> 100 µM
same,TGI,[20],> 100 µM
same,TGI,[21],> 100 µM
same,TGI,[23],> 100 µM
same,TGI,[24],> 100 µM
same,TGI,[25],> 100 µM
same,TGI,[26],> 100 µM
same,TGI,[27],> 100 µM
same,TGI,[28],> 100 µM
same,TGI,[29],> 100 µM
same,TGI,[31],> 100 µM
same,TGI,[32],> 100 µM
same,TGI,[33],> 100 µM
same,TGI,[34],> 100 µM
same,TGI,[35],> 100 µM
same,TGI,[36],> 100 µM
same,TGI,[37],> 100 µM
same,TGI,[38],> 100 µM
same,TGI,[40],> 100 µM
same,TGI,[41],> 100 µM
same,TGI,[42],> 100 µM
same,TGI,[43],> 100 µM
same,TGI,[44],> 100 µM
same,TGI,[45],> 100 µM
same,TGI,[46],64.3 µM
same,TGI,[47],> 100 µM
same,TGI,[48],> 100 µM
same,TGI,[49],> 100 µM
same,TGI,[50],> 100 µM
same,TGI,[51],> 100 µM
same,TGI,[52],> 100 µM
same,TGI,[53],> 100 µM
same,TGI,[55],> 100 µM
same,TGI,[56],> 100 µM
